Source: patent US8088402B2, “Bone growth compositions and methods” (Neuropro Technologies, Inc., priority 2002, dated 2012)

System: male Sprague Dawley rats
Assay: Manual palpation scoring of spinal fusion strength after decortication in rats
Assay type: in vivo, rat
Procedure: Twelve male Sprague Dawley rats, each weighing approximately 500 grams were selected. Each rat underwent anesthesia with Nembutal (50 mg/kg i.p.). Incision over two regions, the thoracic and lumbar, of the spine in each animal were made. Each incision allowed for the exposure of spinous processes and lamina of at east 2 levels per region. Decortication was carried out at each thoracic and lumbar region using a high-speed drill. Over the decorticated levels, nothing, gelmatrix, gelmatrix plus 8 mg lovastatin or gelmatrix plus 16 mg lovastatin were added. 8 mg I.M. of antibiotic Cefazolin™ was subcutaneously administered to each rat.
For purposes of analysis, the rats were divided into three groups. Group A consisting of rats 1-4 was treated with nothing or gelmatrix. Group B consisting of rats 5-8 was treated with gelmatrix and 8 mg of lovastatin. And, group C consisting of rats 9-12 was treated with gelmatrix and 16 mg of lovastatin. The following is a summary of the data:
After en bloc removal, two observers manually palpated the spine of each rat in a blinded fashion. Palpation was made by flexion and extension at the level of the arthrodesis and at the adjacent levels proximally and distally. […] Each motion segment was graded on a qualitative scale (0-3) based on the strength of the fusion. A solid fusion having no motion was given a score of 3. […] No fusion was scored as a 0. […]

## CC[C@H](C)C(=O)O[C@H]1C[C@@H](C)C=C2C=C[C@H](C)[C@H](CC[C@@H]3C[C@@H](O)CC(=O)O3)[C@H]21 [lovastatin]
Gelmatrix plus 8 mg or 16 mg lovastatin over decorticated thoracic or lumbar levels, blinded manual palpation, scale 0-3
  rats treated with lovastatin that had a stronger fusion at the treated region than rats not treated: seventy five
Gelmatrix plus 8 mg vs 16 mg lovastatin, FIG. 11
  dose dependence of fusion grades (palpation score 0-3): dose dependent
